The values below come from US20240002391A1, “4-ALKOXYPYRROLO[2,1-F][1,2,4]TRIAZINES AND PREPARATION AND USES THEREOF” (BioSplice Therapeutics, Inc., priority 2022, published 2024).

Molecules are shown by their SMILES. pIC50: −log10 of the molar value.

The target in the test is recombinant DYRK1A kinase (Homo sapiens (Human), UniProt Q13627). Description: DYRK1A kinase assay (Ser/Thr 18 peptide Z-lyte FRET). The note with it: DYRK1A kinase activity, Z-lyte Ser/Thr 18 peptide, 15 μM ATP; method text calls the value IC50; read-out: EC50 (the source's name). The format is biochemical. As to the method: Representative compounds were screened using the assay procedure for DYRK1A kinase activity as described below.
Each compound was dissolved in DMSO as a 10 mM stock and used to prepare compound source plates. Serial dilution (1:3, 11-point dose-response curves from 10 μM to 0.00016 μM) and compound transfer was performed using the ECHO 550 (Labcyte, Sunnyvale, CA) into 1536-well black-walled round bottom plates (Coming).
The DYRK1A kinase assay was run using the Ser/Thr 18 peptide Z-lyte assay kit according to manufacturer's instructions (Life Technologies-a Division of Thermo-Fisher). This is a non-radioactive assay using fluorescence resonance energy transfer (FRET) between coumarin and fluorescein to detect kinase activity which is represented as a ratio of coumarin emission/fluorescein emission.
Briefly, recombinant DYRK1A kinase, ATP and Ser/Thr peptide 18 were prepared in 1X Kinase buffer to final concentrations of 0.25 μg/mL, 15 μM, and 4 μM respectively. The mixture was allowed to incubate with the representative compounds for one hour at room temperature. All reactions were performed in duplicate. Unphosphorylated (“0% Control”) and phosphorylated (“100% control”) forms of Ser/Thr 18 served as control reactions. Additionally, an 11-point dose-response curve of Staurosporine (luM top) was run to serve as a positive compound control.
After incubation, Development Reagent A was diluted in Development Buffer then added to the reaction and allowed to further incubate for one hour at room temperature. The plate was read at Ex 400 Em 455 to detect the coumarin signal and Ex 400 Em 520 to measure the signal (EnVision Multilabel Plate Reader, PerkinElmer).
The Emission ratio (Em) was calculated as a ratio of the coumarin (C) emission signal (at 445 nm)/Fluorescein (F) emission signal (at 520 nm). The percent phosphorylation was then calculated using the following formula: [1−((Em ratio X F100%)-C100%)/((C0%-C100%) +(Em ratio X (F100%−F0%)))]. Dose-response curves were generated, and inhibitory concentration (IC50) values were calculated using non-linear regression curve fit in the Dotmatics' Studies Software (Bishops Stortford, UK).
For the compound `COc1nc(N[C@H]2CC[C@@H](OCCO)CC2)nn2ccc(-c3ccc4nccn4c3)c12` [Compound 49, 2-((cis-4-((5-(Imidazo[1,2-a]pyridin-6-yl)-4-methoxypyrrolo[2,1-f][1,2,4]triazin-2-yl)amino)cyclohexyl)oxy)ethan-1-ol], the pIC50 is 8.59. For `COCCO[C@H]1CC[C@@H](Nc2nc(OC)c3c(-c4ccc5nccn5c4)ccn3n2)CC1` [Compound 51, 5-(Imidazo[1,2-a]pyridin-6-yl)-4-methoxy-N-(cis-4-(2-methoxyethoxy)cyclohexyl)pyrrolo[2,1-f][1,2,4]triazin-2-amine] the value was 8.17. The same measure for `COCCO[C@H]1CC[C@H](Nc2nc(OC)c3c(-c4ccc5nccn5c4)ccn3n2)CC1` [Compound 52, 5-(Imidazo[1,2-a]pyridin-6-yl)-4-methoxy-N-(trans-4-(2-methoxyethoxy)cyclohexyl)pyrrolo[2,1-f][1,2,4]triazin-2-amine]: 8.28; for `COc1nc(N[C@H]2CC[C@@H](NC(C)=O)CC2)nn2ccc(-c3ccc4nccn4c3)c12` [Compound 53, N-(cis-4-((5-(Imidazo[1,2-a]pyridin-6-yl)-4-methoxypyrrolo[2,1-f][1,2,4]triazin-2-yl)amino)cyclohexyl)acetamide]: 9.15.

Consider `COc1nc(N[C@H]2CC[C@@](C)(O)CC2)nn2ccc(-c3ccc4nccn4c3)c12` [Compound 55, cis-4-((5-(Imidazo[1,2-a]pyridin-6-yl)-4-methoxypyrrolo[2,1-f][1,2,4]triazin-2-yl)amino)-1-methylcyclohexan-1-ol], for which the pIC50 was 8.17.

Turning to `COc1nc(NC2CCN(CC(F)F)CC2)nn2ccc(-c3ccc4nccn4c3)c12` [Compound 61, N-(1-(2,2-Difluoroethyl)piperidin-4-yl)-5-(imidazo[1,2-a]pyridin-6-yl)-4-methoxypyrrolo[2,1-f][1,2,4]triazin-2-amine], the pIC50 is 8.31.

Consider `COc1nc(NC2CCN(C3COC3)CC2)nn2ccc(-c3ccc4nccn4c3)c12` [Compound 62, 5-(Imidazo[1,2-a]pyridin-6-yl)-4-methoxy-N-(1-(oxetan-3-yl)piperidin-4-yl)pyrrolo[2,1-f][1,2,4]triazin-2-amine], for which the pIC50 is 8.07.

Turning to `COc1nc(NC2CCN(C(C)=O)CC2)nn2ccc(-c3ccc4nccn4c3)c12` [Compound 63, 1-(4-((5-(Imidazo[1,2-a]pyridin-6-yl)-4-methoxypyrrolo[2,1-f][1,2,4]triazin-2-yl)amino)piperidin-1-yl)ethan-1-one], the pIC50 is 8.34. The same measure for `COc1nc(N[C@@H]2CCN(C)C[C@@H]2F)nn2ccc(-c3ccc4nccn4c3)c12` [Compound 67, N-((3S,4R)-3-Fluoro-1-methylpiperidin-4-yl)-5-(imidazo[1,2-a]pyridin-6-yl)-4-methoxypyrrolo[2,1-f][1,2,4]triazin-2-amine]: 8.25; for `COc1nc(NC2CC3(COC3)C2)nn2ccc(-c3ccc4nccn4c3)c12` [Compound 74, 5-(Imidazo[1,2-a]pyridin-6-yl)-4-methoxy-N-(2-oxaspiro[3.3]heptan-6-yl)pyrrolo[2,1-f][1,2,4]triazin-2-amine]: 8.28. For `COc1nc(N[C@@H]2[C@@H]3COC[C@@H]32)nn2ccc(-c3ccn4nccc4c3)c12` [Compound 80, N-((1R,5S,6s)-3-Oxabicyclo[3.1.0]hexan-6-yl)-4-methoxy-5-(pyrazolo[1,5-a]pyridin-5-yl)pyrrolo[2,1-f][1,2,4]triazin-2-amine] the value was 7.25. For `CCOc1nc(N[C@H]2C[C@@H](OCCO)C2)nn2ccc(-c3ccn4nccc4c3)c12` [Compound 91, 2-(cis-3-((4-Ethoxy-5-(pyrazolo[1,5-a]pyridin-5-yl)pyrrolo[2,1-f][1,2,4]triazin-2-yl)amino)cyclobutoxy)ethan-1-ol] the value was 8.80.

As for `COc1nc(NC2CC3(C2)CN(C(=O)OC(C)(C)C)C3)nn2ccc(-c3ccn4nccc4c3)c12` [Compound 92, tert-Butyl 6-((4-methoxy-5-(pyrazolo[1,5-a]pyridin-5-yl)pyrrolo[2,1-f][1,2,4]triazin-2-yl)amino)-2-azaspiro[3.3]heptane-2-carboxylate], the pIC50 was 7.20. The same measure for `COc1nc(N[C@H](C)c2ccccn2)nn2ccc(-c3ccn4nccc4c3)c12` [Compound 93, (R)-4-Methoxy-5-(pyrazolo[1,5-a]pyridin-5-yl)-N-(1-(pyridin-2-yl)ethyl)pyrrolo[2,1-f][1,2,4]triazin-2-amine]: 6.71; for `COc1nc(N[C@H]2C[C@](C)(N)C2)nn2ccc(-c3ccn4nccc4c3)c12` [Compound 94, trans-N1-(4-Methoxy-5-(pyrazolo[1,5-a]pyridin-5-yl)pyrrolo[2,1-f][1,2,4]triazin-2-yl)-3-methylcyclobutane-1,3-diamine]: 8.39; for `COc1nc(N[C@H]2C[C@@](C)(N)C2)nn2ccc(-c3ccn4nccc4c3)c12` [Compound 95, cis-N1-(4-Methoxy-5-(pyrazolo[1,5-a]pyridin-5-yl)pyrrolo[2,1-f][1,2,4]triazin-2-yl)-3-methylcyclobutane-1,3-diamine]: 8.09.

As to `COc1nc(N[C@H]2C[C@](C)(NC(C)=O)C2)nn2ccc(-c3ccn4nccc4c3)c12` [Compound 96, N-(trans-3-((4-Methoxy-5-(pyrazolo[1,5-a]pyridin-5-yl)pyrrolo[2,1-f][1,2,4]triazin-2-yl)amino)-1-methylcyclobutyl)acetamide], the pIC50 is 9.00.

As to `COc1nc(N[C@H]2C[C@@](C)(NC(C)=O)C2)nn2ccc(-c3ccn4nccc4c3)c12` [Compound 97, N-(cis-3-((4-Methoxy-5-(pyrazolo[1,5-a]pyridin-5-yl)pyrrolo[2,1-f][1,2,4]triazin-2-yl)amino)-1-methylcyclobutyl)acetamide], the pIC50 is 8.96.

As to `COc1nc(N[C@H]2C[C@](C)(NC(=O)OC(C)(C)C)C2)nn2ccc(-c3ccn4nccc4c3)c12` [Compound 98, tert-Butyl (trans-3-((4-methoxy-5-(pyrazolo[1,5-a]pyridin-5-yl)pyrrolo[2,1-f][1,2,4]triazin-2-yl)amino)-1-methylcyclobutyl)carbamate], the pIC50 was 7.59. The same measure for `CCOc1nc(NC2CC3(C2)CN(C(C)=O)C3)nn2ccc(-c3ccn4nccc4c3)c12` [Compound 99, 1-(6-((4-Ethoxy-5-(pyrazolo[1,5-a]pyridin-5-yl)pyrrolo[2,1-f][1,2,4]triazin-2-yl)amino)-2-azaspiro[3.3]heptan-2-yl)ethan-1-one]: 8.35; for `CNC(=O)c1cnn2ccc(-c3ccn4nc(NC5CCC6(CC5)COC6)nc(OC)c34)cc12` [Compound 102, 5-(2-((2-Oxaspiro[3.5]nonan-7-yl)amino)-4-methoxypyrrolo[2,1-f][1,2,4]triazin-5-yl)-N-methylpyrazolo[1,5-a]pyridine-3-carboxamide]: 8.72; for `COc1nc(N[C@H]2CC[C@](C)(O)CC2)nn2ccc(-c3ccc4ncc(C#N)n4c3)c12` [Compound 103, 6-(2-((trans-4-hydroxy-4-methylcyclohexyl)amino)-4-methoxypyrrolo[2,1-f][1,2,4]triazin-5-yl)imidazo[1,2-a]pyridine-3-carbonitrile]: 8.23. The same measure for `COc1nc(N[C@H]2CC[C@](C)(O)CC2)nn2ccc(-c3ccc4ncc(C(N)=O)n4c3)c12` [Compound 104, 6-(2-((trans-4-hydroxy-4-methylcyclohexyl)amino)-4-methoxypyrrolo[2,1-f][1,2,4]triazin-5-yl)imidazo[1,2-a]pyridine-3-carboxamide]: 8.92; for `CNC(=O)c1cnc2ccc(-c3ccn4nc(NC5CCC6(CC5)COC6)nc(OC)c34)cn12` [Compound 107, 6-(2-((2-Oxaspiro[3.5]nonan-7-yl)amino)-4-methoxypyrrolo[2,1-f][1,2,4]triazin-5-yl)-N-methylimidazo[1,2-a]pyridine-3-carboxamide]: 9.05. On to `COc1nc(N[C@H]2C[C@@](C)(NC(C)=O)C2)nn2ccc(-c3ccc4nc(C)n(CC(F)F)c4c3)c12` [Compound 108, N-(cis-3-((5-(1-(2,2-Difluoroethyl)-2-methyl-1H-benzo[d]imidazol-6-yl)-4-methoxypyrrolo[2,1-f][1,2,4]triazin-2-yl)amino)-1-methylcyclobutyl)acetamide], for which the pIC50 is 8.48.

For `COc1nc(N[C@H]2C[C@](C)(C(=O)N(C)C)C2)nn2ccc(-c3ccc4nc(C)n(CC(F)F)c4c3)c12` [Compound 109, trans-3-((5-(1-(2,2-Difluoroethyl)-2-methyl-1H-benzo[d]imidazol-6-yl)-4-methoxypyrrolo[2,1-f][1,2,4]triazin-2-yl)amino)-N,N,1-trimethylcyclobutane-1-carboxamide], the pIC50 was 9.00.
